Assay results reported in patent publication US20220257631A1, “THERAPEUTIC RNA FOR OVARIAN CANCER” (BIONTECH SE, priority 2019, published 2022).

Legend:
[1] = Respiratory safety, plethysmography (LPT No. 30283); conditions: positive control 30 mg/kg b.w.
[2] = DOTMA biodistribution, LC/MS
antigen-specific T cells = assay: IFN-γ ELISPOT of splenocytes of i.v. vaccinated A2/DR1 mice; type: in vivo; conditions: 30 μg RNA(LIP) i.v., four to five vaccinations
[3] = test system: CD8+ T cells of healthy donors; assay: In vitro priming of CD8+ T cells with RBL005.2-transfected autologous mDCs, MHC-dextramer staining; type: cell-based, human; conditions: three rounds of weekly stimulation
K562-A2 cells = assay: TCR specificity test, IFN-γ ELISPOT with K562-A2 cells; type: cell-based, human
human DCs = assay: IFN-γ secretion of antigen-specific CD8+ T cells co-incubated with RBL005.2-electroporated DCs (Bio-plex); type: cell-based
Description: Antigen-specific CD8^+ T cells were co-incubated with DCs transfected with 0.25, 1, 4, or 16 μg […] different amounts of RBL005.2. As negative controls only effectors, or DCs transfected with irrelevant antigen coding RNA were used. Columns indicate means of two donors and biological duplicates.
In addition, we exemplarily tested the ability of the WAREHOUSE RNA drug product RBL005.2 to generate surface-expressed MHC-class I epitopes after electroporation of the RNAs into human DCs. This was determined by co-incubation of the transfected DCs for 24 h with isolated human CD8^+ T cells equipped with the α- and β-chain of a T-cell receptor (TCR) specific for the HLA-A*0201-restricted epitope […] (CLDN691.99). Activation of the antigen-specific cells was analyzed by IFN-γ Bio-plex bead assay (Bio-Rad Laboratories) of the cell culture supernatants. To consider donor variability each of the test items was analyzed using two different donors. RNA of ATM quality was used. The experiments were carried out using up to 16 μg of the RNAs to electroporate the DCs (Study Report No: STR_21591_003).

## CC(C[N+](C)(C)C)OC(N)=O.[Cl-] (stereo not drawn) [Carbamyl-β-methylcholine chloride]
[1]
  Pulmonary parameters: expected alterations

## CCCCCCCC/C=C\CCCCCCCCOCC(C[N+](C)(C)C)OCCCCCCCC/C=C\CCCCCCCC (centres unmarked) [DOTMA, 1,2-di-O-octadecenyl-3-trimethylammonium propane]
[2]; 60 μg RNA, one or two injections, 24 h
  Organ with highest DOTMA findings: highest DOTMA findings were in the spleen
[2]; single RNA(LIP), 26 μg DOTMA, up to 28 days
  DOTMA distribution: predominantly found in spleen and liver
[2]; single dose
  Factor by which DOTMA is lower in other organs/tissues than spleen and liver: 10-50

## RBL008.1: beta-S-ARCA(D1)-hAg-Kozak-sec-GS-p53-GS-MITD-2hBgUTR-A30L70 mRNA, encodes human p53 (SEQ ID NO: 7)
antigen-specific T cells
  Antigen-specific T-cell responses (IFN-γ ELISPOT): induced antigen-specific T-cell responses in vivo in mice expressing human HLA-molecules.

## RBL012.1: beta-S-ARCA(D1)-hAg-Kozak-sec-GS-PRAME-GS-MITD-2hBgUTR-A30L70 mRNA, encodes human PRAME (SEQ ID NO: 11)
antigen-specific T cells
  Antigen-specific T-cell responses (IFN-γ ELISPOT): induced antigen-specific T-cell responses in vivo in mice expressing human HLA-molecules.

B1: RBL005.2: beta-S-ARCA(D1)-hAg-Kozak-CLDN6-2hBgUTR-A30L70 mRNA, encodes human Claudin 6 (SEQ ID NO: 3) (nucleic acid)
chain: GGGCGAACUAGUAUUCUUCUGGUCCCCACAGACUCAGAGAGAACCCGCCACCAUGGCCUCUGCCGGAAUGCAGAUCCUGGGCGUGGUGCUGACCCUGCUGGGCUGGGUGAAUGGCCUGGUGAGCUGUGCCCUGCCCAUGUGGAAGGUGACAGCCUUCAUUGGCAACAGCAUUGUGGUGGCCCAGGUGGUGUGGGAGGGCCUGUGGAUGAGCUGUGUGGUGCAGAGCACAGGCCAGAUGCAGUGCAAGGUGUAUGACAGCCUGCUGGCCCUGCCUCAGGACCUCCAGGCCGCCAGAGCCCUGUGUGUGAUUGCCCUGCUGGUGGCCCUGUUUGGCCUGCUGGUGUACCUGGCUGGAGCCAAGUGCACCACCUGUGUGGAGGAGAAGGACAGCAAGGCCAGACUGGUGCUGACCUCUGGCAUUGUGUUUGUGAUCUCUGGCGUGCUGACCCUGAUCCCUGUGUGCUGGACAGCCCAUGCCAUCAUCAGAGACUUCUACAACCCUCUGGUGGCCGAGGCCCAGAAAAGAGAGCUGGGAGCCAGCCUGUACCUGGGCUGGGCCGCCUCUGGCCUUCUUCUGCUGGGAGGAGGACUGCUGUGCUGCACCUGCCCCUCUGGCGGCAGCCAGGGCCCCAGCCACUACAUGGCCAGAUACAGCACCUCUGCCCCUGCCAUCAGCAGAGGCCCUUCUGAGUACCCCACCAAGAACUAUGUGUGAGGAGGAUCCCCUCGAGAGCUCGCUUUCUUGCUGUCCAAUUUCUAUUAAAGGUUCCUUUGUUCCCUAAGUCCAACUACUAAACUGGGGGAUAUUAUGAAGGGCCUUGAGCAUCUGGAUUCUGCCUAAUAAAAAACAUUUAUUUUCAUUGCUGCGUCGAGAGCUCGCUUUCUUGCUGUCCAAUUUCUAUUAAAGGUUCCUUUGUUCCCUAAGUCCAACUACUAAACUGGGGGAUAUUAUGAAGGGCCUUGAGCAUCUGGAUUCUGCCUAAUAAAAAACAUUUAUUUUCAUUGCUGCGUCGAGACCUGGUCCAGAGUCGCUAGCAAAAAAAAAAAAAAAAAAAAAAAAAAAAAAGCAUAUGACUAAAAAAAAAAAAAAAAAAAAAAAAAAAAAAAAAAAAAAAAAAAAAAAAAAAAAAAAAAAAAAAAAAAAAA
modifications: beta-S-ARCA cap, poly(A); CLDN6 RNA
[3]
  CD8+ T cells binding HLA-A*02/RBL005.2 91-99 dextramer: 0.462%
K562-A2 cells
  Recognition of RBL005.2-transfected K562-A2 cells by isolated TCR: specific recognition
Human DCs; 0.25, 1, 4, 16 μg RNA
  Dose dependency of IFN-γ production: clear dose dependency
Human DCs; up to 16 μg RNA electroporated, 24 h, two donors
  IFN-γ production by antigen-specific CD8+ T cells: able to produce IFN-γ
antigen-specific T cells
  Antigen-specific T-cell responses (IFN-γ ELISPOT): induced antigen-specific T-cell responses in vivo in mice expressing human HLA-molecules.
